Data reported in ChEMBL document CHEMBL3885881, “DrugMatrix”.

Species on record: Rattus norvegicus
Format: toxicity, organism-based, Sprague-Dawley
Conditions: in vivo, po, route oral GAVAGE, […]; for ABSOLUTE EOSINOPHIL / ABSOLUTE LYMPHOCYTE / ABSOLUTE MONOCYTE / ABSOLUTE SEGMENTED NEUTROPHIL / BASOPHIL / EOSINOPHIL / ERYTHROCYTE COUNT / HEMATOCRIT / HEMOGLOBIN / LEUKOCYTE COUNT / LYMPHOCYTE / MEAN CORPUSCULAR HEMOGLOBIN / MEAN CORPUSCULAR HEMOGLOBIN CONCENTRATION / MEAN CORPUSCULAR VOLUME / MONOCYTE / NEUTROPHIL / NUCLEATED RED BLOOD CELLS / PLATELET COUNT: tissue Blood; for ALANINE AMINOTRANSFERASE / ALBUMIN / ALKALINE PHOSPHATASE / ASPARTATE AMINOTRANSFERASE / BLOOD UREA NITROGEN / CARBON DIOXIDE / CHLORIDE / CHOLESTEROL / CREATINE PHOSPHOKINASE / CREATININE / GLUCOSE / LACTATE DEHYDROGENASE / LIPASE / PHOSPHORUS / POTASSIUM / SODIUM / TOTAL BILIRUBIN / TOTAL PROTEIN / URIC ACID: tissue Plasma
[1] = 400 mg/kg, 24 h, dose level Low, time 1 day
[2] = 1175 mg/kg, 6 h, dose level High, time 0.25 day
[3] = 1175 mg/kg, 24 h, dose level High, time 1 day

Description: DrugMatrix - Regimen: Single

SMILES: ClC(Cl)(Cl)Cl [CARBON TETRACHLORIDE]
- ABSOLUTE EOSINOPHIL [1]: 0 CELLS/uL
- ABSOLUTE LYMPHOCYTE [1]: 6780.67 CELLS/uL
- ABSOLUTE MONOCYTE [1]: 96.83 CELLS/uL
- ABSOLUTE SEGMENTED NEUTROPHIL [1]: 789.17 CELLS/uL
- BASOPHIL [1]: 0%
- EOSINOPHIL [1]: 0%
- ERYTHROCYTE COUNT [1]: 5.7 x10E6/uL
- HEMATOCRIT [1]: 35.63%
- HEMOGLOBIN [1]: 14.05 G/DL
- LEUKOCYTE COUNT [1]: 7.67 x10E3/uL
- LYMPHOCYTE [1]: 88%
- MEAN CORPUSCULAR HEMOGLOBIN [1]: 24.7 pg
- MEAN CORPUSCULAR HEMOGLOBIN CONCENTRATION [1]: 39.43 G/DL
- MEAN CORPUSCULAR VOLUME [1]: 62.67 fL
- MONOCYTE [1]: 1.17%
- NEUTROPHIL [1]: 10.83%
- NUCLEATED RED BLOOD CELLS [1]: 0 /100WBC
- PLATELET COUNT [1]: 966 x10E3/uL
- ALANINE AMINOTRANSFERASE [1]: 129.17 u/L
- ALBUMIN [1]: 4.17 G/DL
- ALKALINE PHOSPHATASE [1]: 338.17 u/L
- ASPARTATE AMINOTRANSFERASE [1]: 420.5 u/L
- BLOOD UREA NITROGEN [1]: 16.33 mg/dL
- CARBON DIOXIDE [1]: 34.33 mmol/L
- CHLORIDE [1]: 98.5 MEQ/L
- CHOLESTEROL [1]: 58 mg/dL
- CREATINE PHOSPHOKINASE [1]: 252 u/L
- CREATININE [1]: 0.29 mg/dL
- GLUCOSE [1]: 127.33 mg/dL
- LACTATE DEHYDROGENASE [1]: 240.17 u/L
- LIPASE [1]: 9.83 u/L
- PHOSPHORUS [1]: 9.37 mg/dL
- POTASSIUM [1]: 5.7 MEQ/L
- SODIUM [1]: 144.08 MEQ/L
- TOTAL BILIRUBIN [1]: 0.22 mg/dL
- TOTAL PROTEIN [1]: 6.3 G/DL
- URIC ACID [1]: 0.53 mg/dL
- ABSOLUTE EOSINOPHIL [2]: 83.17 CELLS/uL
- ABSOLUTE LYMPHOCYTE [2]: 9204 CELLS/uL
- ABSOLUTE MONOCYTE [2]: 323.67 CELLS/uL
- ABSOLUTE SEGMENTED NEUTROPHIL [2]: 4922.5 CELLS/uL
- BASOPHIL [2]: 0%
- EOSINOPHIL [2]: 0.5%
- ERYTHROCYTE COUNT [2]: 5.84 x10E6/uL
- HEMATOCRIT [2]: 39.2%
- HEMOGLOBIN [2]: 14.45 G/DL
- LEUKOCYTE COUNT [2]: 14.53 x10E3/uL
- LYMPHOCYTE [2]: 63.5%
- MEAN CORPUSCULAR HEMOGLOBIN [2]: 24.75 pg
- MEAN CORPUSCULAR HEMOGLOBIN CONCENTRATION [2]: 36.87 G/DL
- MEAN CORPUSCULAR VOLUME [2]: 67.08 fL
- MONOCYTE [2]: 2%
- NEUTROPHIL [2]: 34%
- NUCLEATED RED BLOOD CELLS [2]: 0.17 /100WBC
- PLATELET COUNT [2]: 1289.67 x10E3/uL
- ALANINE AMINOTRANSFERASE [2]: 157 u/L
- ALBUMIN [2]: 4.5 G/DL
- ALKALINE PHOSPHATASE [2]: 379.83 u/L
- ASPARTATE AMINOTRANSFERASE [2]: 369 u/L
- BLOOD UREA NITROGEN [2]: 14.83 mg/dL
- CARBON DIOXIDE [2]: 21 mmol/L
- CHLORIDE [2]: 97.83 MEQ/L
- CHOLESTEROL [2]: 59.17 mg/dL
- CREATINE PHOSPHOKINASE [2]: 433.5 u/L
- CREATININE [2]: 0.14 mg/dL
- GLUCOSE [2]: 128.33 mg/dL
- LACTATE DEHYDROGENASE [2]: 1251.5 u/L
- LIPASE [2]: 9.83 u/L
- PHOSPHORUS [2]: 13.47 mg/dL
- POTASSIUM [2]: 5.85 MEQ/L
- SODIUM [2]: 140.9 MEQ/L
- TOTAL BILIRUBIN [2]: 0.32 mg/dL
- TOTAL PROTEIN [2]: 5.88 G/DL
- URIC ACID [2]: 2.1 mg/dL
- ABSOLUTE EOSINOPHIL [3]: 28.67 CELLS/uL
- ABSOLUTE LYMPHOCYTE [3]: 8687.33 CELLS/uL
- ABSOLUTE MONOCYTE [3]: 78.33 CELLS/uL
- ABSOLUTE SEGMENTED NEUTROPHIL [3]: 1872.33 CELLS/uL
- BASOPHIL [3]: 0%
- EOSINOPHIL [3]: 0.33%
- ERYTHROCYTE COUNT [3]: 5.91 x10E6/uL
- HEMATOCRIT [3]: 37.1%
- HEMOGLOBIN [3]: 14.7 G/DL
- LEUKOCYTE COUNT [3]: 10.67 x10E3/uL
- LYMPHOCYTE [3]: 81%
- MEAN CORPUSCULAR HEMOGLOBIN [3]: 24.93 pg
- MEAN CORPUSCULAR HEMOGLOBIN CONCENTRATION [3]: 39.62 G/DL
- MEAN CORPUSCULAR VOLUME [3]: 62.85 fL
- MONOCYTE [3]: 0.83%
- NEUTROPHIL [3]: 17.83%
- NUCLEATED RED BLOOD CELLS [3]: 0 /100WBC
- PLATELET COUNT [3]: 912.17 x10E3/uL
- ALANINE AMINOTRANSFERASE [3]: 544.67 u/L
- ALBUMIN [3]: 4.05 G/DL
- ALKALINE PHOSPHATASE [3]: 371.33 u/L
- ASPARTATE AMINOTRANSFERASE [3]: 3091.33 u/L
- BLOOD UREA NITROGEN [3]: 15.5 mg/dL
- CARBON DIOXIDE [3]: 33.83 mmol/L
- CHLORIDE [3]: 98.33 MEQ/L
- CHOLESTEROL [3]: 55 mg/dL
- CREATINE PHOSPHOKINASE [3]: 312.83 u/L
- CREATININE [3]: 0.32 mg/dL
- GLUCOSE [3]: 129.83 mg/dL
- LACTATE DEHYDROGENASE [3]: 4392.83 u/L
- LIPASE [3]: 10 u/L
- PHOSPHORUS [3]: 9.72 mg/dL
- POTASSIUM [3]: 5.12 MEQ/L
- SODIUM [3]: 144.23 MEQ/L
- TOTAL BILIRUBIN [3]: 0.27 mg/dL
- TOTAL PROTEIN [3]: 6.05 G/DL
- URIC ACID [3]: 0.52 mg/dL
